Several values for one entry are separate records, joined by “and”; a condition that tells them apart may be missing. Identical values can stand only once.
Tests used:
ERK1/2 activation by V2R = assay: Western blot of V2R-mediated ERK1/2 activation (rebuttal Figure 1); type: cell-based, human; conditions: Barbadin 100 µM
[1] = system: β-arrestin2 recruitment to AT1R; assay: BRET recruitment of β-arrestin2 to AT1R; type: cell-based, human; conditions: for AngII-promoted BRET, β-arrestin2 (Barr2) recruitment to AT1R: Comp 21 50 μM, individual experiments
Method: HEK293SL cells were seeded at a density of 7.5 × 10^5 cells per 100-mm dish and 24 h later, transiently transfected as such. For receptor internalization experiments, cells were transfected with 0.12 μg AT1R-RlucII, B2R-RlucII, or β2AR-RlucII and 0.48 μg of either rGFP-CAAX (to assess removal from the PM) or rGFP-FYVE (to assess accumulation in the endosomes). For β-arrestin recruitment assays, cells were transfected with 0.48 μg of receptor-YFP along with 0.12 μg of β-arrestin-RlucII. For β-arrestin/AP-2 binding experiments, cells were transfected with 1 μg Flag-AT1R, 1 μg β2-Adaptin-YFP, and 0.12 μg β-arrestin2-RlucII. For G protein activation, cells were transfected with 3 μg of sp-Flag-AT1R along with either 4.5 μg of the Gαq-polycistronic BRET sensor or 0.24 μg of the Gαi3-RlucII and 0.6 μg of GFP10-Gγ2 and Gβ1 sensors or 0.12 μg PKN-RBD-RlucII and 0.48 μg of rGFP-CAAX. For PKC activation, cells were transfected with 3 μg of sp-Flag-AT1R and 0.18 μg of the PKC sensor. For GTPase activation experiments, cells were transfected with 1 μg Flag-AT1R, 0.48 μg of rGFP-CAAX, and either 0.12 μg of GGA3-PBD-RlucII, PAK-CRIB-RlucII or Raf-RBD-RlucII. For biosensor validation experiments, cells were additionally transfected with 500 ng Flag-K-Ras-WT, Flag-K-Ras-G12V, Flag-K-Ras-SOS-CAAX, HA-ARF6-WT, HA-ARF6-T27N, Myc-Rac1-WT, Myc-Rac1-Q61L or Myc-Rac1-T17N. For PI3K/Akt activation experiments, cells were transfected with 0.48 μg of rGFP-CAAX and 0.12 μg of Akt (PH)-RlucII. After 18 h of transfection, the media was replaced and cells were divided for subsequent experiments. Cells were detached and seeded onto poly-L-ornithine-coated 96-well flat white bottom plates (BrandTech Scientific) at a density of 2.5 × 10^4 cells per well in media. The next day, cells were washed once with Tyrode’s buffer (140 mM NaCl, 2.7 mM KCl, 1 mM CaCl2, 12 mM NaHCO3, 5.6 mM D-glucose, 0.5 mM MgCl2, 0.37 mM NaH2PO4, 25 mM HEPES, pH 7.4) and left in Tyrode’s buffer. For kinetics of β-arrestin recruitment or β-arrestin binding to receptor and AP-2 experiments, cells were serum starved for 30 min, pretreated with 21 (50 µM) or Barbadin (100 µM) for 30 min, stimulated with 100 nM AngII or 1 µM BK and BRET signals were monitored at indicated times using a Victor X Light plate reader (PerkinElmer). Coelenterazine H (final concentration of 5 µM) was added 3–5 min prior to BRET measurements. Filter set was 460/80 nm and 535/30 nm for detecting the RlucII Renilla luciferase (donor) and YFP (acceptor) light emissions, respectively. The BRET ratio was determined by calculating the ratio of the light emitted by YFP over the light emitted by the RlucII. For G protein activation, cells were serum starved, pretreated with compounds for 30 min, stimulated with 100 nM AngII for 2 min (Gαq, Gαi3, and Rho sensors) or 5 min (PKC sensor). For the kinetics of GTPase and PI3K/Akt activation, cells were serum starved, pretreated with 21 (50 µM) or Wortmannin (200 nM) for 30 min, stimulated with ligand (100 nM AngII or 100 ng/ml EGF) and BRET signals were monitored at indicated times. For concentration-response curves, cells were serum-starved, pretreated with various concentrations of compounds for 30 min and stimulated with ligand (100 nM AngII, 1 µM BK, 10 µM Isoproterenol (Iso) or 100 ng/ml EGF) in Tyrode’s buffer for 30 min for receptor internalization, 10 min for ARF6, 2 min for Rac and Rho activation and 5 min for Ras activation and PI3K/Akt activation. BRET signals were monitored using a Synergy2 (BioTek) microplate reader and coelenterazine 400a (final concentrations of 5 µM) added 3–5 min prior to BRET measurements. Filter set was 410/80 nm and 515/30 nm for detecting the RlucII Renilla luciferase (donor) and rGFP/GFP10 (acceptor) light emissions, respectively. The BRET ratio was determined by calculating the ratio of the light emitted by rGFP/GFP10 over the light emitted by the RlucII.

PKC = PKC BRET sensor, AT1R-mediated; type: cell-based, human
Method: HEK293SL cells were seeded at a density of 7.5 × 10^5 cells per 100-mm dish and 24 h later, transiently transfected as such. For receptor internalization experiments, cells were transfected with 0.12 μg AT1R-RlucII, B2R-RlucII, or β2AR-RlucII and 0.48 μg of either rGFP-CAAX (to assess removal from the PM) or rGFP-FYVE (to assess accumulation in the endosomes). For β-arrestin recruitment assays, cells were transfected with 0.48 μg of receptor-YFP along with 0.12 μg of β-arrestin-RlucII. For β-arrestin/AP-2 binding experiments, cells were transfected with 1 μg Flag-AT1R, 1 μg β2-Adaptin-YFP, and 0.12 μg β-arrestin2-RlucII. […] For kinetics of β-arrestin recruitment or β-arrestin binding to receptor and AP-2 experiments, cells were serum starved for 30 min, pretreated with 21 (50 µM) or Barbadin (100 µM) for 30 min, stimulated with 100 nM AngII or 1 µM BK and BRET signals were monitored at indicated times using a Victor X Light plate reader (PerkinElmer). […] The BRET ratio was determined by calculating the ratio of the light emitted by YFP over the light emitted by the RlucII. […] For the kinetics of GTPase and PI3K/Akt activation, cells were serum starved, pretreated with 21 (50 µM) or Wortmannin (200 nM) for 30 min, stimulated with ligand (100 nM AngII or 100 ng/ml EGF) and BRET signals were monitored at indicated times. […]

K-Ras-Y32A = biological target: T1, K-Ras-Y32A (Homo sapiens, UniProt P01116, Y32A); assay: In vitro mant-GTP exchange assay, purified K-Ras-Y32A with SOS1; type: biochemical; conditions: 50 μM
T1 construct: GST (N); FLAG (N); host or cells: E. coli BL21
T1 sequence (P01116 1-188 isoform P01116-2 Y32A): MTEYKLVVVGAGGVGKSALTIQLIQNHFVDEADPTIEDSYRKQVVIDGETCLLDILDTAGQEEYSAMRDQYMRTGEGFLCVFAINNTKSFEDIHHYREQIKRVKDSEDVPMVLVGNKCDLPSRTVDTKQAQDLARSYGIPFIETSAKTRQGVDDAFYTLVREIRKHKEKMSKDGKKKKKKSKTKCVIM
Method: Ras activity was assessed in a 384-well black bottom plate using the mant-GTP exchange factor assay that measures the uptake of the fluorescent nucleotide analog N-methylanthraniloyl-GTP (mant-GTP) into GTPases. For Ras activation, 2X exchange buffer, 1.66 μg of purified pGEX-6P-1-H-Ras or pGEX-6P-1-K-Ras-WT or pGEX-6P-1-K-Ras-Y32A were added per well in presence of DMSO, different concentrations of Rasarfin (as indicated) or 50 µM of compounds 21.4, 21.7, or 21.8. Using the Infinite 200 Pro plate reader (Tecan) with filters set at 360 nm and 440 nm for detecting the excitation and emissions, respectively, and temperature set at 20 °C, 5 readings were recorded every 5 s before the addition of either H2O, 40 mM EDTA or 0.66 μg purified SOS1. The fluorescence of mant-GTP uptake was measured every 30 sec for 30 min and quantified as the delta relative fluorescence units (RFU), which was calculated as the RFU post-addition minus the 5 averaged RFU pre-addition, per condition.

Compound	V2R-mediated ERK1/2 phosphorylation in HEK293 cells (ERK1/2 activation by V2R)	β-arrestin2 recruitment to AT1R at the PM ([1]; 50 μM)	AngII-promoted BRET, β-arrestin2 (Barr2) recruitment to AT1R ([1]; time 0 min)	AngII-promoted BRET, β-arrestin2 (Barr2) recruitment to AT1R ([1]; time 5 min)	AngII-promoted BRET, β-arrestin2 (Barr2) recruitment to AT1R ([1]; time 10 min)	AngII-promoted BRET, β-arrestin2 (Barr2) recruitment to AT1R ([1]; time 15 min)	AngII-promoted BRET, β-arrestin2 (Barr2) recruitment to AT1R ([1]; time 30 min)	AngII-promoted BRET, β-arrestin2 (Barr2) recruitment to AT1R ([1]; time 60 min)	AT1R-mediated PKC activation (PKC; 50 μM)	PKC BRET sensor signal (S_Fig.4b), single experiments (PKC; listed as Comp 21)	SOS-mediated mant-GTP binding onto purified K-Ras-Y32A (K-Ras-Y32A)
Nn1cnc2scc(-c3ccc(Cc4ccccc4)cc3)c2c1=O [Barbadin, reference compound]	potent inhibition										
CC(C)C(=O)N1CCN(c2ccc(NC(=O)c3cc4ccccc4o3)cc2Cl)CC1 [Compound 21]		did not preclude	0	0.1545 and 0.1824 and 0.1119	0.1572 and 0.2061 and 0.1651	0.1598 and 0.2035 and 0.1848	0.165 and 0.1904 and 0.1659	0.1705 and 0.209 and 0.1941	did not inhibit AT1R-mediated PKC activation	0.07767 and 0.069 and 0.0815	but not on K-Ras-Y32A
